Results: patent publication US8372408B2, “Use of Phaeodactylum algae extract for depigmenting the skin” (LVMH Recherche, priority 2007, dated 2013)
Residues, ends and D or L forms follow the SMILES beside them. *: point of attachment. Cbz = O=C(OCc1ccccc1)*

Legend:
[1] = molecular target: T1, proteasome (chymotrypsin-like activity) of MNT1 cells (Homo sapiens, UniProt P28074); test: Proteasome LLVY (chymotrypsin-like) activity assay on lyzates of treated MNT1 cells; type: cell-based; conditions: for Proteasome activity at 72 hours, Chymotrypsin-like: MNT1 cells lyzed 72 hours after treatment, palmitic or linoleic acid 25 μM, Phaeodactylum 5 μg/ml, Mg132 120 nM where stated; for chymotrypsin-like peptidase activity of the proteasome, change in words: 72 hours after addition, MNT-1 melanocytes, FIG. 1A
T1 construct: introduce in duplicate a fixed volume of cell lyzate; endogenous in cells; host or cells: MNT1 human melanocyte line (lysate)
T1 sequence (P28074 60-263): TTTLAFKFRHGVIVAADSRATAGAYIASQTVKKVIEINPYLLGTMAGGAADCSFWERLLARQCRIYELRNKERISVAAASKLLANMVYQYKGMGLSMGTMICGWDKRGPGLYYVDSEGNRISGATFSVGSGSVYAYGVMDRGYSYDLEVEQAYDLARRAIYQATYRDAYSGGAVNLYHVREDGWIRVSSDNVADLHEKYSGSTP
Protocol: (§1) 2.1 Treatment of MNT1 Cells (Human Melanocyte Cell Lines) in Order to Assay the Proteasome and Tyrosinase Activities MNT1, 10^6 cells/dish 35 mm in diameter, in triplicate
(§2) Treatment on D1 • Linoleic acid 25 μM • Palmitic acid 25 μM • Phaeodactylum 5 μg/ml +1% BSA+Vitamin E 50 μM+Vitamin C 1 mM • Linoleic acid 25 μM • Palmitic acid 25 μM • Phaeodactylum 5 μg/ml Stirring with a magnetic bar at 37° C. for 1 hour • 2nd treatment on D4 +Cycloheximide 1 μg/ml (protein synthesis inhibitor)
(§3) +120 nM Mg132 for the assay of the tyrosinase activity. • Preparation of the lyzates after 4 hours 2 rinses with PBS (phosphate-buffered saline)
(§4) On a bed of ice; recovery in 150 μl of lysis buffer by scraping.
(§5) Freezing at […]. • Protein assay via the Bradford method • Proteasome activity assay The cells are rinsed twice with PBS and each peptidase activity of the proteasome is then determined by using a fluorogenic peptide substrate specific for each of the activities, in the presence and in the absence of a specific proteasome inhibitor, MG 132 (Leu-Leu-Leucinal). The peptide substrate products are the following: Leu-Leu-Val-Tyr-amc (LLVY-amc) for the chymotrypsin-like activity, Leu-Leu-Glu-na (LLE-na) for the post-glutamic hydrolase activity and Leu-Ser-Thr-Arg-amc (LSTR-amc) for the trypsin-like activity. The principle of the assay consists in monitoring over time the increase in fluorescence due to the release of the fluorophores aminomethylcoumarin or β-naphthylamine from the fluorogenic peptides. […]
a) LLVY activity (chymotrypsin-like) a.1—Principle • Proteasome (LLVY activity • (chymotrypsin-like)) N-Succinyl-LLVY-MCA→N-Succinyl-LLVY+MCA fluorescent Reading with a spectrofluorimeter at an excitation wavelength of 350 nm and an emission wavelength of 440 nm.
The process is performed as follows: • Into a 96-well plate, introduce in duplicate a fixed volume of cell lyzate (determined from the lowest protein concentration of the samples, which should correspond to 20 μg of protein) and make up to 100 μl with TRIS buffer. • Add 100 μl of LLVY-MCA substrate prediluted to 25 μM in the TRIS buffer (12.5 μM final). • take the spectrofluorimeter readings at an excitation wavelength of 355 nm and an emission wavelength of 460 nm with a gain of 40, every 2 minutes for 30 minutes.
The raw results are expressed in F.U./minute, F.U. denoting the values supplied by the machine, expressed in fluorescence units.
The assay is performed on 200 μl of reaction volume containing a volume V of cell lyzate set as a function of the protein concentrations of the lyzates.
From the calibration range, the activity may be expressed as follows, in pmol of MCA released/minute/mg of protein: […]
(§6) For the assay of the proteasome activities, the cells were lyzed at 72 hours after the cell treatment, and the protein concentration was determined.

[2] = molecular target: T2, proteasome (trypsin-like activity) of MNT1 cells (Homo sapiens, UniProt Q99436); test: Proteasome LSTR (trypsin-like) activity assay on lyzates of treated MNT1 cells; type: cell-based; conditions: for Proteasome activity at 72 hours, Trypsin-like: MNT1 cells lyzed 72 hours after treatment, palmitic or linoleic acid 25 μM, Phaeodactylum 5 μg/ml, Mg132 120 nM where stated
T2 construct: introduce in duplicate a fixed volume of cell lyzate; endogenous in cells; host or cells: MNT1 human melanocyte line (lysate)
T2 sequence (Q99436 44-277): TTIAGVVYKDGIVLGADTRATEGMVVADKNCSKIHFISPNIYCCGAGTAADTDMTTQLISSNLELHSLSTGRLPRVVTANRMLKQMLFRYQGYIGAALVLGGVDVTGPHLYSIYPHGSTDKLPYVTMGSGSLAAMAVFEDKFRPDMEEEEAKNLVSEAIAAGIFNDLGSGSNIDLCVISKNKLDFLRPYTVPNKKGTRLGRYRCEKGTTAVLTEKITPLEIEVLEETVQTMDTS
Protocol: as §1, §2, §3, §4, §5
Proteasome (LSTR Activity (Trypsin-Like)) Nt Boc LSTR-MCA→Nt Boc LSTR+MCA fluorescent Reading on a spectrofluorimeter at an excitation wavelength of 350 nm and an emission wavelength of 440 nm. c.4—Assay of the LSTR Activity • In a 96-well plate, introduce in duplicate a fixed volume of cell lyzate (determined from the lowest protein concentration of the samples, which should correspond to 50 μg of protein) and make up to 100 μl with TRIS buffer. • Add 100 μl of LSTR-MCA substrate prediluted to 80 μM in the TRIS buffer (40 μM final). • In parallel, check that it is indeed the proteasome activity by testing the inhibitor Mg132. • Add to 50 μg of protein 10 μl of solution of Mg132 prediluted to 400 μM in the TRIS buffer (20 μM final) and make up to 100 μl with TRIS buffer. Next, add 100 μl of LSTR substrate prediluted to 80 μM in the TRIS buffer (40 μM final). • Take the spectrofluorimeter readings at an excitation wavelength of 355 nm and an emission wavelength of 460 nm at a gain of 30, every 2 minutes, for 30 minutes.
The raw results are expressed in F.U./min. […]
as §6

[3] = tested on: tyrosinase in B16F10 cells; conditions: cited from earlier work; for proteasome-dependent degradation of tyrosinase: B16F10 cells, Ando H. et al., J. Biol. Chem. (2004); for amount of melanin: melanocyte culture, previous study

Structure (SMILES) | Proteasome activity at 72 hours, Chymotrypsin-like [1] [pmol/min/mg] | Proteasome activity at 72 hours, Trypsin-like [2] [pmol/min/mg] | chymotrypsin-like peptidase activity of the proteasome, change in words [1] | trypsin-like peptidase activity of the proteasome, change in words ([2]; 72 hours after addition, MNT-1 melanocytes, FIG. 1C) | proteasome-dependent degradation of tyrosinase [3] | amount of melanin [3]
CC(C)C[C@@H](C=O)NC(=O)[C@H](CC(C)C)NC(=O)[C@H](CC(C)C)NC(=O)OCc1ccccc1 [Control + Mg132, Z-Leu-Leu-Leu-CHO] (Cbz-Leu-Leu-Leu-aldehyde) | 3 ± 0.3 | 627 ± 282 | – | – | – | –
CCCCC/C=C\C/C=C\CCCCCCCC(=O)O [Linoleic acid] | 6.3 ± 0.37 | 2848 ± 424 | increase and do so significantly | increase and do so significantly | stimulated | decrease
CCCCCCCCCCCCCCCC(=O)O [Palmitic acid] | 3 ± 0.37 | 1998 ± 261 | reduced | – | reduced | inverse effect
